Assay [1] addresses T1, human Oxytocin (hOT) receptor (Homo sapiens, UniProt P30559).
T1 construct: expressed in transfected cells; host or cells: HEK293EBNA (membranes)
T1 sequence (P30559 1-389): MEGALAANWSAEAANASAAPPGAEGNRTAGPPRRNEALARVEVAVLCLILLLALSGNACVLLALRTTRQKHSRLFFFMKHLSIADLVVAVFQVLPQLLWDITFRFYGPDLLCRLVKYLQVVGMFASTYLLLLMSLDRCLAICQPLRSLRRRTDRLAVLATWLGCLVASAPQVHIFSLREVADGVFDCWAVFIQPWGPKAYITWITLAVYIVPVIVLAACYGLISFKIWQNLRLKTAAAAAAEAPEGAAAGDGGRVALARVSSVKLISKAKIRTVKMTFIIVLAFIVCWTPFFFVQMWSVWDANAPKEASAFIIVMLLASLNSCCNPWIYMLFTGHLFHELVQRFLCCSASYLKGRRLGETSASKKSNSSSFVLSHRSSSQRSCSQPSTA
The experiment in a line: In vitro competition binding assay on hOT receptor with scintillation proximity assay ([125I]-OVTA). The settings on record: inhibition of 125I-OVTA binding; membranes from HEK293EBNA cells expressing the hOT receptor; read-out: Binding Affinity hOT-R (Ki). Here is the method: a) In vitro Competition Binding Assay on hOT Receptor with Scintillation Proximity Assay (18).
This assay allows to determine the affinity of the test compounds for the human Oxytocin (hOT) receptor. Membranes from HEK293EBNA (cells expressing the hOT receptor) were suspended in buffer containing 50 mM Tris-HCl, pH 7.4, 5 mM MgCl2 and 0.1% BSA (w/v). The membranes ([…]) were mixed with 0.1 mg SPA bead coated with wheat-germ aglutinin (WGA-PVT-Polyethylene Imine beads from Amersham) and […] of the radiolabelled [^125I]-OVTA (OVTA being Omithin Vasoactive, an analogue of OT for competitive binding experiments). Non-specific binding was determined in the presence of 1 μM Oxytocin. The total assay volume was 100 μL. The plates (Corning® NBS plate) were incubated at room temperature for 30 min and counted on a Mibrobeta® plate scintillation counter. Competitive binding was performed in presence of compounds of formula (1) at the following concentrations: 30 μM, 10 μM, 1 μM, 300 nM, 100 nM 10 nM, 1 nM, 100 pM, 10 pM. The competitive binding data were analysed using the iterative, nonlinear, curve-fitting program, “Prism” (GraphPad Software, Inc).
The ability of triazole derivatives of formula (I) to inhibit the binding of ^125I-OVTA to the OT-receptor was assessed using the above described in vitro biological assay. Representative values for some example compounds are given in Table 3 where the binding affinity of the compounds is expressed by the inhibition constant (Ki; μM). From these values, it can be derived that said test compounds according to formula I do show a significant binding to the oxytocin receptor.
On the technique in general: In a scintillation proximity assay essentially only radioactivity close to the scintillant gives light.

For assay [2], the system named is oxytocin-induced uterine contractions. As to the kind of experiment: In vivo model for inhibition of oxytocin-induced uterine contractions. Set-up: species or system rat. The settings on record: dose 10 mg/kg, anaesthetised DES-treated non-pregnant female rats. The procedure:
f) In vivo Model for Inhibition of Uterine Contractions
The assay evaluates the biological effect of tested compounds in an in vivo model of preterm labor, premature birth.
Non-pregnant Charles River CD (SD) BR female rats (9-10 weeks old, 200-250 g) were treated at 18 and 24 hours before the experiment with 250 μg/kg, i.p. diethylstilbestrol (DES). For the assay, the animal was anaesthetised with urethane (1.75 g/kg, i.p.) and placed on a homeothermic operating table. The trachea was isolated and cannulated with a suitable polyethylene (PE) tubing. A midline incision at the hypogastrium level was made and one uterine horn exposed, its cephalic end cannulated with a PE240 tubing and, after filling the internal cavity with 0.2 ml of sterile physiological saline, connected to a “Gemini” amplifying/recording system via a P23ID Gould Statham pressure transducer. […]
The contractile response of the uterus to oxytocin was quantified by measuring the intra-uterine pressure and the number of contractions. The effect of the reference and test compounds was evaluated by comparing pre- and post-treatment pressure values. […]
The activities of the triazole derivatives claimed in the Formula I can be assessed using the above described in vivo biological assay. […]

In a further assay the target is T2, hOT receptor (Homo sapiens, UniProt P30559).
T2 construct: expressed in transfected cells; host or cells: HEK293EBNA
T2 sequence (P30559 1-389): T1 sequence (P30559 1-389)
The experiment in a line: Inhibition of oxytocin mediated Ca2+-mobilization by FLIPR in HEK293EBNA cells expressing the hOT receptor. In kind it is cell-based. The settings on record: OT 40 nM, fluo-4 FLIPR, read-out: Inhibition of Ca2+ mobilisation, hOT-R IC50. From the text:
c) Functional Assay No. 1: Inhibition of Oxytocin Mediated Ca^2+-mobilization by FLIPR® (Fluorimetric Imaging Plate Reader)
The action of OT on the OT-receptor triggers a complex cascade of events in the cell which leads to an increase in the intra-cytoplasmic Ca^2+ concentration. This increase in Ca^2+ concentration results from both calcium release from the sarcoplasmic reticulum (calcium stores) into the cytoplasm and from calcium influx from the extracellular space through Ca^2+ channels. This Ca^2+ mobilization into the cytoplasm triggers the contractile machinery of the myometrial cells which leads to uterine contractions (4 and 19).
This assay allows the measurement of the inhibition of OT/OT-R mediated calcium mobilization by test compounds of formula (1).
FLIPR® is a fluorimetric imaging device using a laser (Argon-ion laser) for simultaneous illumination and reading (cooled CCD camera) of each well of a 96-well-plate, thus enabling rapid measurements on a large number of samples.
Preparing the plates: FLIPR-plates were pre-coated with PLL (Poly-L-Lysine) 10 μg/ml+0.1% gelatine to attach HEK293EBNA cells (Human Embryonic Kidney cells expressing the hOT receptor) and incubated for 30 min up to 2 days at 37° C. The cells were plated out into 96-well-plates (60000 cells/well).
Labelling with fluo-4: 50 μg of fluo-4 (Ca2+ sensitive fluorescent dye) were dissolved in 20 μl pluronic acid (20% in DMSO). The dissolved fluo-4 was then diluted in 10 ml DMEM ([…])-F12 culture medium. […]
The relative fluorescence of Fluo (λex=488 nm, λem=590 nm) is then measured by the FLIPR in presence or absence of compounds of formula (I). The fluorescence of the marker being sensitive to the amount of Ca^2+, the Ca^2+ movements can be detected. Then, it can be determined the ability of compounds of formula (I) to antagonize the oxytocin-induced intracellular Ca^2+-mobilization mediated by the oxytocin receptor.
The activities of the triazole derivatives according to formula I were assessed using the above described in vitro biological assay. […]
(In general: Calcium assays in cells follow changes in intracellular calcium, usually with a dye or a luminescent sensor.)

A word on the Ki: it is the dissociation constant of the complex between target and ligand, obtained from inhibition or displacement. The term IC50 denotes the midpoint of a concentration-inhibition curve. With `COc1cccc(-n2c(CCC(=O)NCc3ccccc3OC)nnc2SCc2cccc(Cl)c2)c1` [Example 1, 3-[5-[(3-chlorobenzyl)sulfanyl]-4-(3-methoxyphenyl)-4H-1,2,4-triazol-3-yl]-N-(2-methoxybenzyl)propanamide], in assay [1], the inhibition constant Ki was 45 nM. Moreover, the “% Reduction of Uterine Contraction” value in assay [2] is reported as 16.9 ± 5.1%. The half-maximal inhibitory concentration (IC50) on hOT receptor was 26 nM.

Regarding `COc1ccccc1CNC(=O)CCc1nnc(SCc2cccc(C)c2)n1-c1cccc(Cl)c1` [Example 3, 3-{4-(3-chlorophenyl)-5-[(3-methylbenzyl)sulfanyl]-4H-1,2,4-triazol-3-yl}-N-(2-methoxybenzyl)propanamide], in assay [1], the inhibitory constant (Ki) amounted to 134 nM.

For `COCCCn1c(CCC(=O)NCc2ccccc2OC)nnc1SCc1cccc(Cl)c1` [Example 4, 3-[5-[(3-chlorobenzyl)sulfanyl]-4-(3-methoxypropyl)-4H-1,2,4-triazol-3-yl]-N-(2-methoxybenzyl)propanamide], the Ki in assay [1] came to 326 nM.

Take `COc1ccccc1CNC(=O)CCc1nnc(SCc2cccc(F)c2)n1-c1ccc(C)cc1` [Example 5, 3-[5-[(3-fluorobenzyl)sulfanyl]-4-(4-methylphenyl)-4H-1,2,4-triazol-3-yl]-N-(2-methoxybenzyl)propanamide]: in assay [1], the inhibition constant (Ki) was found to be 127 nM.

For the compound `COc1ccccc1CNC(=O)CCc1nnc(SCc2cccc(C)c2)n1Cc1ccc(C)cc1` [Example 6, N-(2-methoxybenzyl)-3-{4-(4-methylbenzyl)-5-[(3-methylbenzyl)sulfanyl]-4H-1,2,4-triazol-3-yl}propanamide], the inhibition constant Ki in assay [1] came to 246 nM.

For the compound `COc1ccccc1CNC(=O)CCc1nnc(SCc2cccc(Cl)c2)n1-c1cccc(C)c1` [Example 8, 3-[5-[(3-chlorobenzyl)sulfanyl]-4-(3-methylphenyl)-4H-1,2,4-triazol-3-yl]-N-(2-methoxybenzyl)propanamide], the Ki in assay [1] is 229 nM.

Take `COc1ccccc1CNC(=O)CCc1nnc(SCc2ccccc2)n1-c1ccc(C)cc1` [Example 9, 3-[5-(benzylsulfanyl)-4-(4-methylphenyl)-4H-1,2,4-triazol-3-yl]-N-(2-methoxybenzyl)propanamide]: in assay [1], the Ki came to 205 nM.

As to `COc1ccccc1CNC(=O)CCc1nnc(SCc2ccc(F)cc2)n1-c1cccc(Cl)c1` [Example 11, 3-{4-(3-chlorophenyl)-5-[(4-fluorobenzyl)sulfanyl]-4H-1,2,4-triazol-3-yl}-N-(2-methoxybenzyl)propanamide], the inhibition constant (Ki) in assay [1] is 329 nM.

`COc1ccccc1CNC(=O)CCc1nnc(SCc2ccccc2)n1-c1cccc(Cl)c1` [Example 12, 3-[5-(benzylsulfanyl)-4-(3-chlorophenyl)-4H-1,2,4-triazol-3-yl]-N-(2-methoxybenzyl)propanamide]: in assay [1], the Ki amounted to 439 nM.

`CCCCNC(=O)CCc1nnc(SCc2cccc(Cl)c2)n1-c1cccc(Cl)c1` [Example 15, N-butyl-3-[5-[(3-chlorobenzyl)sulfanyl]-4-(3-chlorophenyl)-4H-1,2,4-triazol-3-yl]propanamide]: in assay [1], the Ki stood at 245 nM.

In the case of `COc1cccc(-n2c(CCC(=O)NCc3ccccc3OC)nnc2SCc2cccc(C)c2)c1` [Example 16, N-(2-methoxybenzyl)-3-{4-(3-methoxyphenyl)-5-[(3-methylbenzyl)sulfanyl]-4H-1,2,4-triazol-3-yl}propanamide], the Ki in assay [1] amounted to 197 nM.

For `COc1ccccc1CNC(=O)CCCc1nnc(SCc2cccc(Cl)c2)n1-c1ccccc1` [Example 137, 4-{5-[(3-chlorobenzyl)sulfanyl]-4-phenyl-4H-1,2,4-triazol-3-yl}-N-(2-methoxybenzyl)butanamide], the Ki in assay [1] came out at 2550 nM. For the same compound, at hOT receptor, the IC50 came out at 486 nM.

Consider `COc1ccccc1CNC(=O)CCCCc1nnc(SCc2cccc(Cl)c2)n1-c1cccc(Cl)c1` [Example 184, 5-[5-[(3-chlorobenzyl)sulfanyl]-4-(3-chlorophenyl)-4H-1,2,4-triazol-3-yl]-N-(2-methoxybenzyl)pentanamide], for which, in assay [1], the Ki is 481 nM.

`COc1ccccc1CNC(=O)CCCCc1nnc(SCc2cccc(Cl)c2)n1-c1ccccc1` [Example 185, 5-{5-[(3-chlorobenzyl)sulfanyl]-4-phenyl-4H-1,2,4-triazol-3-yl}-N-(2-methoxybenzyl)pentanamide]: in assay [1], the Ki amounted to 603 nM. Further, at hOT receptor, the IC50 turned out to be 58 nM.

As for `COc1ccccc1CNC(=O)CCCCc1nnc(SCc2cccc(C)c2)n1CCc1ccccc1` [Example 189, N-(2-methoxybenzyl)-5-[5-[(3-methylbenzyl)sulfanyl]-4-(2-phenylethyl)-4H-1,2,4-triazol-3-yl]pentanamide], the inhibition constant (Ki) in assay [1] was found to be 515 nM.

The record behind these values is patent US7468385B2, “Triazoles as oxytocin antagonists” (Laboratoires Serono SA, priority 2001, dated 2008).
